One data set has as its system A2780 cells. In words: Cellular accumulation of platinum by ICP-MS. It counts as cell-based, human. To be noted: after 8 h. The procedure: FIG. 5 is a plot showing the accumulation of Complex A in A2780 cells after treatment with 0.5 μM Complex A for 1 to 12 h.
The inventors first tested the cellular accumulation of Complex A by ICP-MS. Platinum accumulation in A2780 cells increases dramatically over time before 8 h and very slowly increases over time after 8 h. Thus, an incubation time of 8 h is selected for the following biological assays.
The cellular accumulation levels of Pt in A2780 cells treated with Complex A and oxaliplatin after 8 h are 6.4±1.2 and 0.9±0.1 ng Pt/106 cells, respectively. […] The cellular distribution of Complex A was also observed.

Data set [1] relates to A2780 ovarian carcinoma cells. Briefly: Cytotoxicity, MTT assay. It is filed as cell-based, human. To be noted: 8 h treatment. The procedure:
(§1) The biological activity of Complex A was subsequently evaluated. A2780 cells were maintained in Roswell Park Memory Institution (RPMI) 1640 medium supported with 10% FBS, 2 mM L-glutamine, and 100 unit/mL penicillin/streptomycin. MCF-7 cells were cultured in Dulbecco's modified Eagle's medium supported with 10% FBS and 100 unit/mL penicillin/streptomycin. MRC-5 cells were maintained in Eagle's minimum essential medium supported with 10% FBS, 1 mM sodium pyruvate, 2 mM L-glutamine, 1 mM non-essential amino acid and 100 unit/mL penicillin/streptomycin. All the cells were incubated in a humidified incubator at 37° C. with 5% CO2
(§2) Cytotoxicity test was performed by exposing the cancer cells with Complex A. The viability of cancer cells exposed was evaluated by means of MTT assay. Cells were seeded in 96-well plates at a density of 3,000 cells per well and incubated until the cell confluency reached 50%. Then, the medium was removed and replaced with fresh medium containing different concentrations of complexes with 1% DMF. After 8 h, the medium was aspirated, the well was washed with PBS for twice, and Earle's balanced salt solution (EBSS) was added. […] The EBSS was removed, and fresh complete cell culture medium was added to each well. After 40 h, the medium was changed to serum-free medium containing 1 mg/mL MTT. After 2 h additional incubation, the medium was removed, and DMSO (200 μL) was delivered to each well to dissolve the formed purple formazan. The absorbance at 570 nm and 730 nm of each well was measured by using a microplate reader (BioTek PowerWave XS).
(§3) The cytotoxicity of Complex A was then evaluated, using oxaliplatin and PPA as controls. Cells were treated with the compounds for 8 h, followed by irradiation or incubation in the dark, and the cell viability was measured by the MTT assay after 40 h. Complex A is non-toxic to the tested cells in the dark, and is very active under irradiation.

In data set [2] the test system is A2780cisR (platinum-resistant A2780 cells). Briefly: Cytotoxicity, MTT assay. It counts as cell-based, human. To be noted: for IC50: A2780cisR, 8 h treatment. The procedure:
as §1, §2, §3
(Formazan colour is commonly taken as a measure of viable cells.)

In another data set the test system is MCF-7 cells. In words: Cytotoxicity, MTT assay. It is filed as cell-based, human. How it is done: as §1, §2, §3
Data set [3] relates to MRC-5 normal human lung fibroblasts. In words: Cytotoxicity, MTT assay. It is filed as cell-based. To be noted: in dark, MTT at 40 h. How it is done:
as §1
Cytotoxicity test was performed by exposing the cancer cells with Complex A. The viability of cancer cells exposed was evaluated by means of MTT assay. Cells were seeded in 96-well plates at a density of 3,000 cells per well and incubated until the cell confluency reached 50%. Then, the medium was removed and replaced with fresh medium containing different concentrations of complexes with 1% DMF. […] The absorbance at 570 nm and 730 nm of each well was measured by using a microplate reader (BioTek PowerWave XS).
The cytotoxicity of Complex A was then evaluated, using oxaliplatin and PPA as controls. Cells were treated with the compounds for 8 h, followed by irradiation or incubation in the dark, and the cell viability was measured by the MTT assay after 40 h. […]

The nature of another data set: Fluorescence lifetime. It counts as physicochemical. To be noted: in DMF. From the text: The inventors further investigated the mechanism of the reduction Complex A. No overlap was observed between the absorbance spectra of PPA and the dihydroxyl Pt(IV) compound [Pt(DACH)(OH)2(ox)]. Therefore, direct energy transfer may not occur between PPA and the Pt(IV) center. […] The normalized fluorescence intensity of PPA and Complex A is identical, and the fluorescence lifetime of Complex A is 7 ns in DMF, which is the same as PPA. […] Since PPA is able to generate reactive oxygen species (ROS) and singlet oxygen through type I and type II photo process, respectively, the inventors used a hydroxyl radical scavenger, DMSO, and a singlet oxygen scavenger, NaN3, to investigate the electron transfer process. […] Thus, without to be bound by theory, the inventors believe that hydroxy radical is involved in the reaction, and the elimination of hydroxy radical may accelerate the reaction. Furthermore, it was observed that the reduction rate is related to the water content in the system.

Data set [4] can be described thus: Photoactivation (photo-reduction) of Complex A under 650 nm irradiation, HPLC. It counts as physicochemical. To be noted: mixture of the compound and PPA in the presence of ascorbate. How it is done:
FIG. 3 is a combined RP-HPLC chromatogram showing the intensity of Complex A and PPA after 10 μM Complex A in PBS buffer containing 1% DMF and 1 mM ascorbate was subject to irradiation at 650 nm with a power density of 7 mW/cm^2 for different time periods (from 0 min to 30 min). Peak 1 corresponds to Complex A, and Peak 2 corresponds to PPA.
FIG. 4 is a plot showing the amount of Complex A and PPA after subjecting to irradiation at 650 nm calculated from the results in FIG. 3.
The photoactivation property of Complex A was investigated. Buffer solution containing 10 μM Complex A with 1 mM ascorbate in a quartz cuvette was irradiated with LED lamp (650 nm, 7 mW/cm^2) under stirring. Samples were analyzed by HPLC. […] After irradiation for 10 min, 81% of Complex A was reduced, and most of the complex was reduced within 30 min. Irradiation of Complex A without the presence of ascorbate also leads to the release of PPA and oxaliplatin, but the reaction speed is much slower.
The inventors further investigated the mechanism of the reduction Complex A. No overlap was observed between the absorbance spectra of PPA and the dihydroxyl Pt(IV) compound [Pt(DACH)(OH)2(ox)]. […] The normalized fluorescence intensity of PPA and Complex A is identical, and the fluorescence lifetime of Complex A is 7 ns in DMF, which is the same as PPA. […]

Setting [5] is: with irradiation at 650 nm (7 mW/cm^2) for 15 min, MTT at 40 h after irradiation.
Setting [6] is: Homo sapiens, in the dark, MTT at 40 h.
The mark [7] stands for this setting: Homo sapiens, light or radiation study, with irradiation at 650 nm (7 mW/cm^2) for 15 min, MTT at 40 h after irradiation.

The term IC50 denotes the midpoint of a concentration-inhibition curve. A high value points to weaker potency. Turning to `O=C1[O][Pt]2([NH][C@@H]3CCCC[C@H]3[NH]2)[O]C1=O` [Oxaliplatin, oxaliplatin], in the data set on A2780 cells, the “cellular accumulation levels of Pt” value is 0.9±0.1 ng Pt/106 cells. Also, the IC50 is above 40 µM in data set [1] (in the dark, MTT at 40 h); above 40 µM in data set [1] (setting [5]); 162 ± 9 µM in data set [2] (in the dark, MTT at 40 h); 185 ± 8 µM in data set [2] (setting [5]); 110 ± 4.3 µM in the data set on MCF-7 cells (8 h treatment, in the dark, MTT at 40 h); 78.6 ± 8.7 µM in the data set with MCF-7 cells (8 h treatment, with irradiation at 650 nm (7 mW/cm^2) for 15 min, MTT at 40 h after irradiation). In addition, half-maximal inhibition in data set [3] (8 h treatment) (IC50) was put at 122 ± 5.2 µM. In data set [2] (IC50 towards cisplatin-resistant cells divided by IC50 towards non-resistant cells (A2780cisR / A2780)), this molecule yielded a resistant factor of 2.7.

Molecule `C=Cc1c(C)c2cc3nc(c4c5[nH]c(cc6nc(cc1[nH]2)C(C)=C6CC)c(C)c5C(=O)C4)[C@@H](CCC(=O)O)[C@@H]3C` [PPA, pyropheophorbide a] displayed a fluorescence lifetime in the data set “Fluorescence lifetime” of 7 ns. Also, the IC50 in data set [1] (setting [6]) was above 10 µM; in data set [1] (setting [7]) it was 0.34 ± 0.05 µM; in data set [2] (setting [7]), 0.23 ± 0.01 µM; in data set [2] (setting [6]), above 10 µM; in the data set on MCF-7 cells (Homo sapiens, MCF7, 8 h treatment, in the dark, MTT at 40 h), above 10 µM; with MCF-7 cells (Homo sapiens, MCF7, light or radiation study, 8 h treatment, with irradiation at 650 nm (7 mW/cm^2) for 15 min, MTT at 40 h after irradiation), 0.2 ± 0.02 µM. Also, the IC50 in data set [3] (Homo sapiens, MRC5, 8 h treatment) is above 10 µM.

As to “[Pt(DACH)(OH)2(ox)] [[(Pt(DACH)(OH)2(ox))]]”, the reduction under irradiation result in data set [4] is “cannot be reduced”.

For the origin of these results see patent publication US10899781B2, “Platinum complex, its preparation and therapeutic use” (City University of Hong Kong, priority 2018, dated 2021).
